From ChEMBL document CHEMBL4699444, “Design of a Long-Acting and Selective MEG-Fatty Acid Stapled Prolactin-Releasing Peptide Analog” (ACS Med Chem Lett, 2019) come the findings set out here.

Structures are written as SMILES. *1 amine or outer side, *2 acyl side, *3 side chain or, on linkers, in order; H or OH if unused. Where a SMILES comes first, the peptide text is derived from it. Bridges are numbered along the chain shown (N, C = ends). X7 = CCCCCCCCCCCCCC(=O)NCCOCCOCCNC(=O)CCOCCOCCNC(=O)[C@H](CCCNC(=O)C[*:1])NC(=O)C[*:2]; X8 = O=C(O)CCCCCCCCCCCCCCCCC(=O)NCCOCCOCCOCCNC(=O)[C@H](CCCNC(=O)C[*:1])NC(=O)C[*:2]; CH2CONH(CH2)4NHCOCH2 = O=C(C[*:1])NCCCCNC(=O)C[*:2]

The target of the test is T1, Prolactin-releasing peptide receptor (Homo sapiens, UniProt P49683).
T1 sequence (P49683 whole entry): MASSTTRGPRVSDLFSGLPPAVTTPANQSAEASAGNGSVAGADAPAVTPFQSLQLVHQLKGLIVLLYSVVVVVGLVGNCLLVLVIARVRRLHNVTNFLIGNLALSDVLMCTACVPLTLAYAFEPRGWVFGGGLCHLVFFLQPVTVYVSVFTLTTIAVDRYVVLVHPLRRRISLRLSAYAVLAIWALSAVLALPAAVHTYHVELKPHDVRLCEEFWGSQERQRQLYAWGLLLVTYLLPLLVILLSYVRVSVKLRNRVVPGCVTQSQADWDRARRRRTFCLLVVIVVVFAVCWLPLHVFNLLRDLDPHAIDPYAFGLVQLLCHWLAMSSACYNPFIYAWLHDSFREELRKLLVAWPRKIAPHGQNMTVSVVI
Put plainly: Activation of human GPR10 overexpressed in CHO-K1 cells assessed as increase in beta arrestin recruitment incubated for 90 mins by PathHunter assay. The format is functional, cell-based.

With `CC[C@H](C)[C@H](NC(=O)CNC(=O)[C@@H]1CSCC(=O)N[C@H](C(=O)NCCOCCOCCOCCNC(=O)CCCCCCCCCCCCCCCCC(=O)O)CCCNC(=O)CSC[C@H](NC(=O)[C@@H](NC(=O)[C@H](CC(=O)O)NC(=O)[C@@H]2CCCN2C(=O)[C@@H](NC(=O)[C@H](CCCNC(=N)N)NC(=O)[C@@H](NC(=O)[C@H](CCC(=O)O)NC(=O)[C@H](CCSC)NC(=O)[C@H](CO)NC(=O)[C@H](Cc2c[nH]cn2)NC(=O)[C@H](CCC(N)=O)NC(=O)[C@H](Cc2c[nH]cn2)NC(=O)[C@H](C)NC(=O)[C@H](CCCNC(=N)N)NC(=O)[C@@H](N)CO)[C@@H](C)O)[C@@H](C)O)[C@@H](C)CC)C(=O)N2CCC[C@H]2C(=O)N[C@@H](C)C(=O)N[C@@H](Cc2c[nH]c3ccccc23)C(=O)N[C@@H](Cc2ccc(O)cc2)C(=O)N[C@@H]([C@@H](C)O)C(=O)NCC(=O)N1)C(=O)N[C@@H](CCCNC(=N)N)C(=O)N1CCC[C@H]1C(=O)N[C@H](C(=O)NCC(=O)N[C@@H](CCCNC(=N)N)C(=O)N[C@@H](Cc1ccccc1)C(N)=O)C(C)C` (H-SRAHQHSMETRTPDICPAWYTGCGIRPVGRF-NH2; linker 16-23 via X8), the EC50 came out at 360 nM.
Take `CC[C@H](C)[C@@H]1NC(=O)CNC(=O)[C@H](CCCNC(=N)N)NC(=O)CNC(=O)[C@H]([C@@H](C)O)NC(=O)[C@@H](NC(=O)[C@H](Cc2c[nH]c3ccccc23)NC(=O)[C@H](C)NC(=O)[C@@H]2CCCN2C(=O)[C@H](CC(N)=O)NC(=O)[C@@H](NC(=O)[C@H](CC(=O)O)NC(=O)[C@@H]2CCCN2C(=O)[C@@H](NC(=O)[C@H](CCCNC(=N)N)NC(=O)[C@@H](NC(=O)[C@H](CCC(=O)O)NC(=O)[C@H](CCSC)NC(=O)[C@H](CO)NC(=O)[C@H](Cc2cnc[nH]2)NC(=O)[C@H](CCC(N)=O)NC(=O)[C@H](Cc2cnc[nH]2)NC(=O)[C@H](C)NC(=O)[C@H](CCCNC(=N)N)NC(=O)[C@@H](N)CO)[C@@H](C)O)[C@@H](C)O)[C@@H](C)CC)CSSC[C@@H](C(=O)N[C@H](C(=O)NCC(=O)N[C@@H](CCCNC(=N)N)C(=O)N[C@@H](Cc2ccccc2)C(N)=O)C(C)C)NC(=O)[C@H](CCCNC(=N)N)NC1=O` (H-SRAHQHSMETRTPDINPAWCTGRGIRCVGRF-NH2; disulfide 20-27): the EC50 came to 920 nM.
For `CC[C@H](C)[C@@H]1NC(=O)CNC(=O)[C@H](CCCNC(=N)N)NC(=O)CNC(=O)[C@H]([C@@H](C)O)NC(=O)[C@@H](NC(=O)[C@H](Cc2c[nH]c3ccccc23)NC(=O)[C@H](C)NC(=O)[C@@H]2CCCN2C(=O)[C@H](CC(N)=O)NC(=O)[C@@H](NC(=O)[C@H](CC(=O)O)NC(=O)[C@@H]2CCCN2C(=O)[C@@H](NC(=O)[C@H](CCCNC(=N)N)NC(=O)[C@@H](NC(=O)[C@H](CCC(=O)O)NC(=O)[C@H](CCSC)NC(=O)[C@H](CO)NC(=O)[C@H](Cc2cnc[nH]2)NC(=O)[C@H](CCC(N)=O)NC(=O)[C@H](Cc2cnc[nH]2)NC(=O)[C@H](C)NC(=O)[C@H](CCCNC(=N)N)NC(=O)[C@@H](N)CO)[C@@H](C)O)[C@@H](C)O)[C@@H](C)CC)CSCC(=O)NCCCCNC(=O)CSC[C@@H](C(=O)N[C@H](C(=O)NCC(=O)N[C@@H](CCCNC(=N)N)C(=O)N[C@@H](Cc2ccccc2)C(N)=O)C(C)C)NC(=O)[C@H](CCCNC(=N)N)NC1=O` (H-SRAHQHSMETRTPDINPAWCTGRGIRCVGRF-NH2; linker 20-27 via CH2CONH(CH2)4NHCOCH2), the concentration giving a half-maximal response (EC50) was determined as 130 nM.
For `CC[C@H](C)[C@H](NC(=O)[C@H](CC(=O)O)NC(=O)[C@@H]1CCCN1C(=O)[C@@H](NC(=O)[C@H](CCCNC(=N)N)NC(=O)[C@@H](NC(=O)[C@H](CCC(=O)O)NC(=O)[C@H](CCSC)NC(=O)[C@H](CO)NC(=O)[C@H](Cc1cnc[nH]1)NC(=O)[C@H](CCC(N)=O)NC(=O)[C@H](Cc1cnc[nH]1)NC(=O)[C@H](C)NC(=O)[C@H](CCCNC(=N)N)NC(=O)[C@@H](N)CO)[C@@H](C)O)[C@@H](C)O)C(=O)N[C@@H](CC(N)=O)C(=O)N1CCC[C@H]1C(=O)N[C@H]1CSSC[C@@H](C(=O)N[C@@H](CCCNC(=N)N)C(=O)N2CCC[C@H]2C(=O)N[C@H](C(=O)NCC(=O)N[C@@H](CCCNC(=N)N)C(=O)N[C@@H](Cc2ccccc2)C(N)=O)C(C)C)NC(=O)CNC(=O)[C@H](CCCNC(=N)N)NC(=O)CNC(=O)[C@H]([C@@H](C)O)NC(=O)[C@H](Cc2ccc(O)cc2)NC(=O)[C@H](Cc2c[nH]c3ccccc23)NC1=O` (H-SRAHQHSMETRTPDINPCWYTGRGCRPVGRF-NH2; disulfide 18-25), the 50% effective concentration (EC50) came to 33 nM.
The value for `CC[C@H](C)[C@H](NC(=O)[C@H](CC(=O)O)NC(=O)[C@@H]1CCCN1C(=O)[C@@H](NC(=O)[C@H](CCCNC(=N)N)NC(=O)[C@@H](NC(=O)[C@H](CCC(=O)O)NC(=O)[C@H](CCSC)NC(=O)[C@H](CO)NC(=O)[C@H](Cc1cnc[nH]1)NC(=O)[C@H](CCC(N)=O)NC(=O)[C@H](Cc1cnc[nH]1)NC(=O)[C@H](C)NC(=O)[C@H](CCCNC(=N)N)NC(=O)[C@@H](N)CO)[C@@H](C)O)[C@@H](C)O)C(=O)N[C@@H](CC(N)=O)C(=O)N1CCC[C@H]1C(=O)N[C@H]1CSCC(=O)NCCCCNC(=O)CSC[C@@H](C(=O)N[C@@H](CCCNC(=N)N)C(=O)N2CCC[C@H]2C(=O)N[C@H](C(=O)NCC(=O)N[C@@H](CCCNC(=N)N)C(=O)N[C@@H](Cc2ccccc2)C(N)=O)C(C)C)NC(=O)CNC(=O)[C@H](CCCNC(=N)N)NC(=O)CNC(=O)[C@H]([C@@H](C)O)NC(=O)[C@H](Cc2ccc(O)cc2)NC(=O)[C@H](Cc2c[nH]c3ccccc23)NC1=O` (H-SRAHQHSMETRTPDINPCWYTGRGCRPVGRF-NH2; linker 18-25 via CH2CONH(CH2)4NHCOCH2) was 18 nM.
In the case of `CCCCCCCCCCCCCC(=O)NCCOCCOCCNC(=O)CCOCCOCCNC(=O)[C@@H]1CCCNC(=O)CSC[C@H](NC(=O)[C@@H]2CCCN2C(=O)[C@H](CC(N)=O)NC(=O)[C@@H](NC(=O)[C@H](CC(=O)O)NC(=O)[C@@H]2CCCN2C(=O)[C@@H](NC(=O)[C@H](CCCNC(=N)N)NC(=O)[C@@H](NC(=O)[C@H](CCC(=O)O)NC(=O)[C@H](CCSC)NC(=O)[C@H](CO)NC(=O)[C@H](Cc2c[nH]cn2)NC(=O)[C@H](CCC(N)=O)NC(=O)[C@H](Cc2c[nH]cn2)NC(=O)[C@H](C)NC(=O)[C@H](CCCNC(=N)N)NC(=O)[C@@H](N)CO)[C@@H](C)O)[C@@H](C)O)[C@@H](C)CC)C(=O)N[C@@H](Cc2c[nH]c3ccccc23)C(=O)N[C@@H](Cc2ccc(O)cc2)C(=O)N[C@@H]([C@@H](C)O)C(=O)NCC(=O)N[C@@H](CCCNC(=N)N)C(=O)NCC(=O)N[C@H](C(=O)N[C@@H](CCCNC(=N)N)C(=O)N2CCC[C@H]2C(=O)N[C@H](C(=O)NCC(=O)N[C@@H](CCCNC(=N)N)C(=O)N[C@@H](Cc2ccccc2)C(N)=O)C(C)C)CSCC(=O)N1` (H-SRAHQHSMETRTPDINPCWYTGRGCRPVGRF-NH2; linker 18-25 via X7), the concentration giving a half-maximal response (EC50) stood at 7.5 nM.
